Test results: patent publication US10889569B2, “Condensed ring group azacyclobutyl triazole derivative, preparation method therefor and use thereof in medicine” (Jiangsu Hengrui Medicine Co., Ltd., priority 2016, dated 2021)

Assays:
[1] = Brain permeability of rats (Kp-unbound); assay type: in vivo; details: both sexes, rat, not told, po; SD rats, 10 mg/kg intragastrically, 0.5 h after administration; read-out: Kp-unbound (blood-brain permeability index)
Protocol: The activity of the compounds of the present invention on the brain permeability of rats was determined by the following experimental method:
Four SD rats (half male and half female) were maintained in a 12 hours light/12 hours dark cycle, in a constant temperature of 24±3° C. and a humidity of 50-60%, and free access to food and water. The compounds were administered intragastrically to the rats after fasting overnight. The administration dosage was 10 mg/kg. The administration group was sacrificed after blood collection at 0.5 h to 2 h after administration (blood volume: 0.5 ml). The blood sample was stored in heparinized tubes, and centrifuged for 10 minutes at 3500 rpm to separate the plasma, which was marked as plasma 1 and stored at […]. The animal was decapitated after sacrificing, and the brain tissue was collected. The residual blood in the brain tissue was sucked with a filter paper, which was marked as brain tissue 1, and stored at 0° C. ten minutes later. Another three animals were treated by the same method as that of administration group to obtain blank plasma and brain tissue 2.
The drug compounds were diluted to 50 mM with DMSO to obtain a stock solution I. An appropriate amount of stock solution I was diluted with methanol to obtain a diluted stock solution II (200 μM). 10 μl of stock solution II was moved to a 1.5 ml Eppendorf tube, and then added with 990 μl of blank plasma, and mixed well to obtain 2 μM of plasma sample 2 (concentration of DMSO≤0.2%), which was used for the determination of plasma protein binding rate at this concentration. […]
The equilibrium dialysis tube of RED Device Inserts was inserted into a 96-well plate. […] The chromatographic peak area ratios of the total drug (plasma chamber) and the free drug (buffer chamber) to the internal standard were determined directly by the LC/MS/MS method established above respectively, and the free percent (fu plasma %) was calculated.
Brain tissue protein binding equilibrium dialysis process: the blank brain tissue 2 was formulated into a blank brain homogenate with PBS (pH 7.4) according to a dilution factor of 11, and added with compound to formulate a 2 μM brain homogenate. Other procedures were the same with that of plasma protein binding, the chromatographic peak area ratios of the total drug (brain homo chamber) and the free drug (buffer chamber) to the internal standard were determined by the established LC/MS/MS method respectively, and the free percent (fu brain hom %) was calculated.
1) The drug concentrations in plasma 1 and brain tissue 1 of rats 0.5 h after administration were determined by the established LC/MS/MS method respectively, which were the total concentration (Ctotal, p and Ctotal, b); […]

human V1bR = human V1bR (Homo sapiens, UniProt P47901); assay: Inhibition activity on human V1bR (Fluo-4 calcium assay, HEK293/human V1bR pool cells); assay type: cell-based; details: vasopressin 3 nM
Protocol: The inhibition effect of the compounds of the present invention on the activity of human V1bR protein expressed in HEK293/human V1bR cells was determined by the following experimental method:
The pcDNA3.1-V1bR plasmid was transferred into HEK293 cells with the Lipofectamine® 3000 transfection reagent; G418 was added on the next day, and the HEK293/human V1bR pool cell lines were obtained.
HEK293/human V1bR pool cells were inoculated in a 96-well plate with an inoculation density of 25,000 cells/well one day in advance. On the next day, a loading buffer containing Fluo-4 dye was formulated using the reagents in the Fluo-4 NW calcium assay kit, and the culture medium was then removed; 100 μl of the loading buffer containing Fluo-4 dye were added to each well, and the plate was incubated at 37° C. for 30 minutes. After that, the plate was moved to room temperature and equilibrated for 10 minutes. The compounds were formulated into 10^6, 10^5, 10^4, 10^3, 10^2 and 10^1 nM. 1 μl of the compounds in each concentration was added to each well, and the plate was incubated at room temperature for 10 minutes. 50 μl of vasopressin polypeptide (3 nM) were automatically added by the machine, and the values were immediately detected at 494/516 nM by the flexstation 3 microplate reader. IC50 values of the compounds were calculated by Graphpad prism software using fluorescence signals corresponding to different concentrations.
The inhibition activity of the compounds of the present invention on human V1bR was determined by the above test, and the obtained IC50 values are shown in Table 3.

Compound	Kp at 0.5 h [1]	IC50 (human V1bR)
COCc1nnc(N2CC(c3cccc4cc(F)ccc34)C2)n1-c1ccc(OC)nc1 [Example 2, 5-(3-(3-(6-Fluoronaphthalen-1-yl)azetidin-1-yl)-5-(methoxymethyl)-4H-1,2,4-triazol-4-yl)-2-methoxypyridine]	0.199	26 µM
COCc1nnc(N2CC(n3cc(C)c4cc(F)ccc43)C2)n1-c1ccc(OC)nc1 [Example 17, 5-Fluoro-1-(1-(5-(methoxymethyl)-4-(6-methoxypyridin-3-yl)-4H-1,2,4-triazol-3-yl)azetidin-3-yl)-3-methyl-1H-indole]	0.295	19.8 µM
